# In patent publication US20230303494A1, “BENZYLAMINE DERIVATIVE, PREPARATION METHOD THEREFOR AND USE THEREOF” (ACADEMY OF MILITARY MEDICAL SCIENCES, priority 2020, published 2023):
# pIC50, pKd: −log10 of the molar value.
# What was measured:
# [1] = test system: Human peripheral blood mononuclear cells (PBMCs); experiment: Promotion of IFN-γ secretion in PBMCs treated with anti-CD3/anti-CD28 and PDL1/FC fusion protein (ELISA); type: cell-based; conditions: for IFN-γ / Increase rate of IFN-γ expression vs PDL1 treatment: hPD-L1 10.0 μg/mL, 72 h
# Protocol: Human peripheral blood mononuclear cells (PBMCs) were isolated from 10-15 ml of whole blood of healthy volunteers using experimental human lymphocyte separation medium (TBD sciences). The cells were washed twice with normal saline and resuspended in buffer (RPMI 1640 complete medium containing 10% FBS, SIGMA) to count the cell density. The PBMCs were dispersed and placed in a 96-well plate, 1×10^5 cells and 50 μL of buffer per well. Anti-CD3 antibody (SIGMA) and anti-CD28 antibody (SIGMA) were mixed at a ratio of 1:1 to obtain an antibody mixture. The antibody mixture was added to the wells to ensure that the final concentration of antibody was 0.8 μg/mL. At the same time, PDL1/FC fusion protein (SINO BIOLOGICAL) was added to reach a final concentration of 10.0 μg/mL, and the compound to be tested was diluted with buffer and added to the wells to reach a final concentration of 0.1 μM or 1 μM. The mixed system was incubated at 37° C. and 5% CO2 for 72 h. The supernatant was collected, and the expression level of IFN-γ was measured by ELISA MAXTM Human IFN-γ Standard Kit (BioLegend), and the increase rate was calculated. Increase rate (%)=(expression amount of compound treatment−expression amount of PDL1 treatment)/expression amount of PDL1 treatment×100%
# PD-1/PD-L1 interaction = PD-1/PD-L1 interaction (Homo sapiens (Human), UniProt Q9NZQ7); experiment: PD-1/PD-L1 Binding Assay kit (Cisbio), HTRF; conditions: 8-10 concentrations, read-out: IC50 of inhibition of PD-1/PD-L1 interaction
# PBMCs cells = experiment: Cytotoxicity, Cell Titer-Glo, PBMCs cells; type: cell-based; conditions: Homo sapiens, PBMC; 24 hours incubation; read-out: PBMCs cells IC50 (cell death)
# Protocol: (§1) The raji (ATCC), raw (ATCC) and PBMCs cells were suspended in buffer (RPMI 1640 complete medium containing 10% FBS, SIGMA), respectively, and the cell density was counted. The cells were transferred to wells of a 96-well plate, ensuring that the cell density of each well was 1×10^4 cells/well, and incubated for 24 hours at 37° C., 5% CO2 with compounds at different concentrations (100 μM, 50 μM, 25 μM, 12.5 μM, 6.25 μM and 3.125 μM) and buffer control solution (0.2% DMSO). To each well, 100 μL of Cell Titer-Glo Luminescent Solution (Promega) was added and shaken for 10 minutes at room temperature, and then GloMax® Navigator System was used to measure the system […], and the cell death rate was calculated. Cell death rate (%)=(1−RLUcompound/RLUcontrol)×100%, and IC50 was determined from the inhibition curve.
# Raji cells = experiment: Cytotoxicity, Cell Titer-Glo, Raji cells; type: cell-based; conditions: Homo sapiens, 24 hours incubation, read-out: Raji cells IC50 (cell death)
# Protocol: as §1
# Raw cells = experiment: Cytotoxicity, Cell Titer-Glo, Raw cells; type: cell-based; conditions: 24 hours incubation; read-out: Raw cells IC50 (cell death)
# Protocol: as §1
# human PD-L1 = human PD-L1 (Homo sapiens (Human), UniProt Q9NZQ7); experiment: Biofilm interferometry (BLI, OctetRED) binding to human PD-L1/AVI; conditions: 1:1 binding model; for koff: read-out: Kdis
# Protocol: In the experiment, the instrument OctectRED of Fortebio Company based on biofilm interferometry (BLI) technology was used to capture human PD-L1/AVI with SA chips. The concentration of antigen PD-L1/AVI was diluted to 10 μg/mL with running buffer (PBS+0.02% Tween-20+2% DMSO), and the loading time was 300 s; similarly, the analyte was also diluted to the corresponding concentrations (20 nM, 10 nM, 5 nM, 2.5 nM, 1.25 nM, 0.625 nM, 0.3125 nM) with running buffer in gradient manner, and a buffer blank control group was set at the same time. The binding time of human PD-L1/AVI to the analyte was 180 s, and the dissociation time was 300 s; the chip was regenerated with 10 mM glycine HCl, pH 1.7 solution and repeated 5-second pulse for 3 times. The data were fitted to a 1:1 binding model to determine the equilibrium dissociation constant KD.
# PD-1/PD-L1 interaction, sequence (Q9NZQ7 19-238): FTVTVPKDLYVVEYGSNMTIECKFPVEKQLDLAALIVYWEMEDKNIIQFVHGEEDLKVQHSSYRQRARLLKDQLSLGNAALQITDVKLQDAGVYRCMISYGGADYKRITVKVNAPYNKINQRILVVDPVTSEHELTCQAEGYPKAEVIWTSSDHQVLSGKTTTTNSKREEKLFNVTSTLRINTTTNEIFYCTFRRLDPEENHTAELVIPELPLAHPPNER
# human PD-L1, sequence (Q9NZQ7 19-290): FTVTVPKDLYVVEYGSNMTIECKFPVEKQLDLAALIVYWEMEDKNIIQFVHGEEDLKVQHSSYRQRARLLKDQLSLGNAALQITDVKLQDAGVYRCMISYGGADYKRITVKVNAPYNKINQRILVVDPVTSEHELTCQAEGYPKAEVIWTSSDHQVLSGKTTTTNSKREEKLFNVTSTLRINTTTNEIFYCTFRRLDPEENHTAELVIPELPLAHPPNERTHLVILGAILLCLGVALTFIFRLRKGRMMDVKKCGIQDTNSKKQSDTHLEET
SMILES,pIC50 (PD-1/PD-L1 interaction),pIC50 (PBMCs cells),pIC50 (Raji cells),pIC50 (Raw cells),further results
COc1nc(OCc2cccc(-c3ccccc3)c2C)ccc1CNCCNC(C)=O [BMS202],,,,,IFN-γ ([1]; compound 0.1 μM): 35100 pg/mL; Increase rate of IFN-γ expression vs PDL1 treatment ([1]; compound 0.1 μM): 64.8%; IFN-γ ([1]; compound 1.0 μM): 39100 pg/mL; Increase rate of IFN-γ expression vs PDL1 treatment ([1]; compound 1.0 μM): 83.6%
CC(=O)NCCNCc1ccc(NCc2cccc(-c3ccccc3)c2C)cc1OCc1cccc(C#N)c1 [Compound 1],5.31,,,,
Cc1c(CNc2ccc(CNCCO)c(OCc3cccc(C#N)c3)c2)cccc1-c1ccccc1 [Compound 2],5.43,,,,
Cc1c(CNc2ccc(CNC(CO)CO)c(OCc3cccc(C#N)c3)c2)cccc1-c1ccccc1 [Compound 3],5.59,,,,
Cc1c(CNc2ccc(CN[C@H](CO)C(=O)O)c(OCc3cccc(C#N)c3)c2)cccc1-c1ccccc1 [Compound 4],5.94,< 4.00,< 4.00,< 4.00,pKd (human PD-L1): 8.74; kon (human PD-L1): 651000 M⁻¹ s⁻¹; koff (human PD-L1): 0.00118 s⁻¹
Cc1cc(NCc2cccc(-c3ccccc3)c2C)cc(OCc2cccc(C#N)c2)c1CN[C@H](CO)C(=O)O [Compound 6],6.36,,,,
Cc1cc(NCc2cccc(-c3ccccc3)c2C)cc(OCc2cncc(C#N)c2)c1CN[C@H](CO)C(=O)O [Compound 7],6.44,,,,
COc1cc(NCc2cccc(-c3ccccc3)c2C)cc(OCc2cccc(C#N)c2)c1CN[C@H](CO)C(=O)O [Compound 8],6.17,< 4.00,< 4.00,< 4.00,
COc1nc(NCc2cccc(-c3ccccc3)c2C)ccc1CNCCNC(C)=O [Compound 9],5.37,,,,
Cc1c(CNc2ccc(CN[C@H](CO)C(=O)O)c(OCc3cncc(C#N)c3)c2)cccc1-c1ccccc1 [Compound 10],7.42,< 4.00,< 4.00,< 4.00,"IFN-γ ([1]; compound 0.1 μM): 37700 pg/mL; Increase rate of IFN-γ expression vs PDL1 treatment ([1]; compound 0.1 μM): 77.0%; IFN-γ ([1]; compound 1.0 μM): 41500 pg/mL; Increase rate of IFN-γ expression vs PDL1 treatment ([1]; compound 1.0 μM): 94.8%; effect on promoting IFN-γ secretion at the cellular level ([1]; in words, better than that of BMS202): significant effect on promoting IFN-γ secretion; pKd (human PD-L1): 9.53; kon (human PD-L1): 849000 M⁻¹ s⁻¹; koff (human PD-L1): 0.000251 s⁻¹"
COc1cc(NCc2cccc(-c3ccccc3)c2C)c(Cl)cc1CN[C@H](CO)C(=O)O [Compound 11],6.97,,,,pKd (human PD-L1): 9.29; kon (human PD-L1): 1.29e+06 M⁻¹ s⁻¹; koff (human PD-L1): 0.000664 s⁻¹
COc1nc(NCc2cccc(-c3ccccc3)c2C)ccc1CN[C@H](CO)C(=O)O [Compound 12],5.34,,,,
COc1cc(NCc2cccc(-c3ccccc3)c2C)c(C)cc1CNC(CO)C(=O)O (centres unmarked) [Compound 14],,< 4.00,< 4.00,< 4.00,
COc1cc(NCc2cccc(-c3ccccc3)c2C)ncc1CN[C@H](CO)C(=O)O [Compound 15],5.58,,,,
Cc1cc(CN[C@H](CO)C(=O)O)c(OCc2cccnc2)cc1NCc1cccc(-c2ccccc2)c1C [Compound 17],7.04,< 4.00,4.10,4.21,
Cc1cc(CN[C@@H](CO)CC(=O)O)c(OCc2cncc(C#N)c2)cc1NCc1cccc(-c2ccccc2)c1C [Compound 18],7.64,,,,
Cc1cc(CN[C@H](CO)C(=O)O)c(OCc2cccc(C#N)c2)cc1NCc1cccc(-c2ccccc2)c1C [Compound 19],6.78,,,,
CCOc1cc(NCc2cccc(-c3ccccc3)c2C)c(C)cc1CN[C@H](CO)C(=O)O [Compound 20],6.46,,,,

SMILES,pIC50 (PD-1/PD-L1 interaction),pIC50 (PBMCs cells),pIC50 (Raji cells),pIC50 (Raw cells),further results
Cc1cc(CN2C[C@H](O)C[C@H]2C(=O)O)c(OCc2cncc(C#N)c2)cc1NCc1cccc(-c2ccccc2)c1C [Compound 21],7.62,4.12,< 4.00,4.05,
Cc1cc(CNC[C@@H](O)CC(=O)O)c(OCc2cncc(C#N)c2)cc1NCc1cccc(-c2ccccc2)c1C [Compound 22],7.77,,,,
Cc1cc(CN2C[C@@H](O)CC2=O)c(OCc2cncc(C#N)c2)cc1NCc1cccc(-c2ccccc2)c1C [Compound 23],7.44,,,,
Cc1cc(CN[C@H](CCO)C(=O)O)c(OCc2cncc(C#N)c2)cc1NCc1cccc(-c2ccccc2)c1C [Compound 24],5.87,,,,
Cc1cc(CN[C@H](CC(N)=O)C(=O)O)c(OCc2cncc(C#N)c2)cc1NCc1cccc(-c2ccccc2)c1C [Compound 25],7.33,,,,
Cc1c(CN(C)c2ccc(CN[C@H](CO)C(=O)O)c(OCc3cccc(C#N)c3)c2)cccc1-c1ccccc1 [Compound 26],< 4.00,,,,
Cc1c(CN(C)c2ccc(CNCCO)c(OCc3cccc(C#N)c3)c2)cccc1-c1ccccc1 [Compound 27],4.65,< 4.00,4.08,< 4.00,
Cc1c(NCc2ccc(CN[C@H](CO)C(=O)O)c(OCc3cncc(C#N)c3)c2)cccc1-c1ccccc1 [Compound 28],6.72,,,,
Cc1cc(CN[C@H](CO)C(=O)O)c(OCc2cncc(C#N)c2)cc1NCc1cccc(-c2ccccc2)c1C(F)(F)F [Compound 29],6.21,,,,
N#Cc1cncc(COc2cc(NCc3cccc(-c4ccccc4)c3C(F)(F)F)ccc2CN[C@H](CO)C(=O)O)c1 [Compound 30],5.53,,,,
N#Cc1cncc(COc2cc(NCc3cccc(-c4ccccc4)c3Br)ccc2CNC(CO)C(=O)O)c1 (centres unmarked) [Compound 31],,< 4.00,< 4.00,< 4.00,
N#Cc1cccc(COc2cc(NCc3cccc(-c4ccccc4)c3Br)ccc2CNC(CO)C(=O)O)c1 (centres unmarked) [Compound 33],6.20,,,,
Cc1c(CNc2ccc(CN[C@H](CO)C(=O)O)c(OCc3cccc(C#N)c3)c2)cccc1-c1ccc2c(c1)OCCO2 [Compound 34],6.36,< 4.00,4.04,< 4.00,
"Cc1c(COc2ccc(CNC(CO)C(=O)O)c(OCc3cncc(C#N)c3)c2)cccc1-c1ccccc1 (centres unmarked) [Compound 37, reference compound]",,4.77,4.65,4.51,IFN-γ ([1]; compound 0.1 μM): 23200 pg/mL; Increase rate of IFN-γ expression vs PDL1 treatment ([1]; compound 0.1 μM): 8.9%; IFN-γ ([1]; compound 1.0 μM): 25100 pg/mL; Increase rate of IFN-γ expression vs PDL1 treatment ([1]; compound 1.0 μM): 17.8%; pKd (human PD-L1): 7.17; kon (human PD-L1): 12600 M⁻¹ s⁻¹; koff (human PD-L1): 0.000851 s⁻¹
"Cc1c(COc2ccc(CN[C@H](CO)C(=O)O)c(OCc3cncc(C#N)c3)c2)cccc1-c1ccccc1 [Compound 37, reference compound]",6.49,,,,
"Cc1c(C#N)cncc1COc1cc(OCc2cccc(-c3ccccc3)c2C)ccc1CNC(CO)C(=O)O (centres unmarked) [Compound 38, reference compound]",,4.58,4.49,4.54,IFN-γ ([1]; compound 0.1 μM): 23300 pg/mL; Increase rate of IFN-γ expression vs PDL1 treatment ([1]; compound 0.1 μM): 9.4%; IFN-γ ([1]; compound 1.0 μM): 22600 pg/mL; Increase rate of IFN-γ expression vs PDL1 treatment ([1]; compound 1.0 μM): 6.1%
"Cc1c(C#N)cncc1COc1cc(OCc2cccc(-c3ccccc3)c2C)ccc1CN[C@H](CO)C(=O)O [Compound 38, reference compound]",5.98,,,,
